Source: the NIST ThermoML archive (doi:10.1016/j.jct.2007.02.004)

How the values were obtained:
[1] = refractive index (Na D-line) (dimensionless); details: 293.15 K; 101.33 kPa; Liquid; Standard Abbe refractometry
[2] = 293.15 K; 101.33 kPa; Liquid
[3] = xn = mol fraction of the nth substance listed; details: 101 kPa, Liquid

CCOC(=O)OCC [diethyl carbonate]
Details	mass density [kg/m3]	refractive index
[1]	–	1.3845
[2]	974.65	–

CCOC(=O)OCC [diethyl carbonate] + CCCCCCO
mass density [kg/m3], [3]
Details	293.15 K	303.15 K	313.15 K	323.15 K
x1 = 0.0502	825.96	818.55	811.04	803.29
x1 = 0.1123	834.86	827.16	819.37	811.3
x1 = 0.1499	840.29	832.48	824.54	816.2
x1 = 0.2103	849.1	841.04	832.78	824.2
x1 = 0.2508	855.05	846.79	838.35	829.57
x1 = 0.3121	864.19	855.69	846.97	837.88
x1 = 0.3576	871.02	862.23	853.42	844.05
x1 = 0.4113	879.15	870.21	861.12	851.48
x1 = 0.4632	887.08	877.88	868.59	858.73
x1 = 0.5111	894.51	885.13	875.61	865.59
x1 = 0.552	900.88	891.35	881.55	871.51
x1 = 0.6008	908.59	898.87	888.91	878.65
x1 = 0.6498	916.39	906.42	896.35	885.85
x1 = 0.7108	926.19	915.93	905.65	894.96
x1 = 0.7554	933.45	923.08	912.55	901.77
x1 = 0.8112	942.65	932.03	921.16	910.41
x1 = 0.8501	949.13	938.29	927.49	916.42
x1 = 0.9002	957.5	946.57	935.57	924.3
x1 = 0.9555	966.89	955.77	944.49	933.24

CCCCCCO [hexan-1-ol]
Details	mass density [kg/m3]	refractive index
[1]	–	1.4178
[2]	818.84	–
